Measured values: patent US20040091479A1, “T-cell epitope of the papillomavirus l1 and e7 protein and use thereof in diagnostics and therapy” (priority 2000, published 2004)

Legend:
[1] = test system: T cell line generated with HeLa CD80/HLA-A2 transfectants (H7.1-A2); test: IFN-γ ELISpot of H7.1-A2-specific T cell line against peptide-loaded autologous PBMC; assay type: cell-based, human; settings: H7.1-A2-induced T cell line, FIG. 17 top
[2] = test system: autologous peptide-loaded BLCL; test: Cytotoxicity test (chromium release assay) of HPV18 E786-94-specific T cells; assay type: cell-based, human; settings: effector to target ratio of 30:1, FIG. 17 bottom
Description: The predicted peptides were synthesized using standard methods (F moc method). […] For this, 1×10^5 PBMC derived from healthy, HLA-A2-positive donors were sown, in 100 μl of medium (RPMI 1640, 10% heat-inactivated AB plasma), in each well of a 96-well plate. 20 μg of peptide/ml were added to the culture medium. The cells were incubated at 37° C. and restimulated once per week with irradiated peptide-loaded autologous PBMC. The stimulator PBMC were incubated for 4 hours in medium containing 20 μg of peptide/ml. After the irradiation, they were diluted down to 1×10^4/100 μl with medium and added to the peptide-stimulated PBMC. For this, half the medium was aspirated from each well and 100 μl of the stimulator PBMC suspension were added. 10 U of IL-2/ml and 10 U of IL-7/ml were added from the 3rd stimulation onwards. From the 5th stimulation onwards, restimulation was carried out in the same manner using peptide-loaded autologous B lymphoblast cell lines (BLCL).
The cytotoxicity of HPV18 E786-94-specific T cells was determined in a chromium release assay. Autologous BLCL were used as the target cells. In each case, 5×10^5 cells were taken up in 100 μl of medium (RPMI 1640, 10% FCS) and treated with 20 μl of ^51chromium (NEN). For loading the BLCL with peptide, 50 μg of the corresponding peptide were added/ml. After that, the cells were incubated at room temperature for 2 hours while being carefully resuspended every 20-30 min. The cells were then washed 3 times with 5 ml of medium. For the sedimenting, the cells were in each case centrifuged at 1500 rpm for 5 min and then carefully resuspended. […]
The assay samples were incubated for 4 hours at 37° C., 98% atmospheric humidity and 5% CO2. […] On the following day, 150 μl of Microscint 40 scintillation fluid (Canberra-Packard, Deieich) were added and the numbers of distintegrations per minute in the individual assay samples were measured in the scintillation counter (Topcount, Canberra-Packard, Dreieich).
The specific lysis was calculated using the following formula: […]

human T cells = test: Summary of examples 3 to 18: epitopes recognized by human T cells; assay type: cell-based; settings: Table 4, HPV18 peptides, species human; MHC restriction
[3] = test system: TIL from an HPV18- and HLA-A2-positive patient; test: ELISpot of tumor-infiltrating lymphocytes with peptide-loaded K-A2 cells; assay type: cell-based, human; settings: peptide-loaded K-A2 stimulators; FIG. 18 bottom
[4] = test system: T cell lines directed against HPV18 E7; test: ELISpot of T cell lines induced with HPV18 E7-loaded dendritic cells; assay type: cell-based, human; settings: E7 protein-induced and E7 peptide pool-induced T cell lines; epitope-loaded DC; FIG. 18 top
Description: 1×10^4 stimulator cells (K-A2 cells, that is K-562 cells (ATCC CCL-243) were transfected with an HLA A2 expression vector, PBMC or dendritic cells) were sown, in 60 μl of medium (RPMI 1640, 0.4% human albumin), in one well of a 96-well round-bottomed cell culture plate and loaded overnight with 50 μg of peptide/ml. On the following day, 5×10^4 T cells, in 60 μl of medium (containing 10 U each of IL-2 and IL-7/ml), were added to each well and the plate was incubated for 4 hours. A Millipore nitrocellulose HA plate was coated overnight, at 4° C., with the anti-human IFN-γ monoclonal antibody 1-Dlk (10 μg/ml in PBS, 60 μl/well, Hölzel Diagnostika, Cologne). On the following day, the plate was washed 3 times for in each case 5 min with 150 μl of sterile PBS per well and then blocked with medium for 1 hour at 37° C. The blocking medium was removed and the cells were transferred from the round-bottomed cell culture plate to the filter plate and then incubated for a further 20 to 22 hours. After that, the cells and the medium were removed and the filter plate was washed 6 times for 2 min with PBS/Tween 20 (0.05%). The antibody Ab-7-B6-1-biotin was then added (2 μg/ml in PBS/BSA, 60 μl/well, Hölzel Diagnostika) and the plate was incubated at 4° C. overnight. […] The spots were counted using a ZEISS-VISION (Halbergmoos) ELISpot readout system. […]

FQQLFLNTL [HPV18 E786-94, HPV18 E7 86-94]
IFN-γ ELISpot reaction [1]: specific reaction
specific lysis [2]: approx. 20%
Haplotype (human T cells): HLA-A2
ELISpot reaction of TIL populations [3]: marked reaction
epitope-specific T cells in ELISpot assay [4]: detected in both T cell lines
